Source: PMC11859928, “Design, Synthesis, and Antiproliferative Activity of Novel Indole/1,2,4-Triazole Hybrids as Tubulin Polymerization Inhibitors” (Pharmaceuticals, 2025)
Where two headings read alike, the source gives them in different places.

Legend:
MDA-MB-468 = assay: NCI five-dose assay; assay type: cell-based, human; settings: MDA-MB-468, Breast cancer
SF-295 = assay: NCI five-dose assay; assay type: cell-based, human; settings: SF-295, CNS cancer
Renal cancer subpanel = assay: NCI five-dose assay, subpanel mean; assay type: cell-based, human
OVCAR-3 = assay: NCI five-dose assay; assay type: cell-based, human; settings: OVCAR-3, Ovarian cancer
tubulin = target: T1, tubulin (Sus scrofa, UniProt P02550+P02554); assay: Tubulin polymerization inhibitory assay; assay type: biochemical
T1 construct: purchased Cytoskeleton Inc., Denver, CO, USA
T1 sequence (P02554 whole entry): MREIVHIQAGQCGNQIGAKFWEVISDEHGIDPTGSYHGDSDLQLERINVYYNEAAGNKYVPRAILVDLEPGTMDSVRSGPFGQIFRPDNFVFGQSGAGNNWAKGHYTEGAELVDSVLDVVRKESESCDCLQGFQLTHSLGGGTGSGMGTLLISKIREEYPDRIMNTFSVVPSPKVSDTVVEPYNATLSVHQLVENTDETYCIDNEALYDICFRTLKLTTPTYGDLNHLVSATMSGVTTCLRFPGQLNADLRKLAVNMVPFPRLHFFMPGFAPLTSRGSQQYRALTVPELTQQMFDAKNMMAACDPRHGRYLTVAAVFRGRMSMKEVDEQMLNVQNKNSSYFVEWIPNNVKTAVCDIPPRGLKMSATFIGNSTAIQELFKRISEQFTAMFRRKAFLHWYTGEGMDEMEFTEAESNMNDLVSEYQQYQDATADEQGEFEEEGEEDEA
T1 sequence (P02550 whole entry): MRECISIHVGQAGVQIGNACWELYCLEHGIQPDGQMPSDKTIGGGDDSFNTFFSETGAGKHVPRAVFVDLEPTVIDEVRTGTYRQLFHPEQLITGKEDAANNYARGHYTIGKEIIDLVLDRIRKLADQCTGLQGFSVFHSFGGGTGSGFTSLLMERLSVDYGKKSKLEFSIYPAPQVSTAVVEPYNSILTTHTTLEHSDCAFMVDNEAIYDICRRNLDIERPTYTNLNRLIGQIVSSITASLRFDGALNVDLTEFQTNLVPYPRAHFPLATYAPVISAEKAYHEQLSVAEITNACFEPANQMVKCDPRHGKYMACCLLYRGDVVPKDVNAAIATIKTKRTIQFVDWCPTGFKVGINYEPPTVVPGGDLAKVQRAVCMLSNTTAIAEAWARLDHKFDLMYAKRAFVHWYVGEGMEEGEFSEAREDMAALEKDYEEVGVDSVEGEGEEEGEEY
Excerpt: The substances’ effects on tubulin polymerization were examined using the Tubulin Polymerization Assay Kit (Cytoskeleton Inc., Denver, CO, USA) according to the supplier’s instructions, with details described in Appendix A..
The activity of compounds on tubulin polymerization was investigated using the Tubulin Polymerization Assay Kit (Cytoskeleton Inc., Denver, CO, USA), which works via fluorescent reporter enhancement. […] Docetaxel and vincristine (Apoteket AB, Stockholm, Sweden) served as positive stabilizing and destabilizing controls. Both were used at a 3 µM concentration in PBS.

ACHN = assay: NCI five-dose assay; assay type: cell-based, human; settings: Renal cancer
KM12 = assay: NCI five-dose assay; assay type: cell-based, human; settings: KM12, Colon cancer
SF-539 = assay: NCI five-dose assay; assay type: cell-based, human; settings: SF-539, CNS cancer
UACC-257 = assay: NCI five-dose assay; assay type: cell-based, human; settings: UACC-257, Melanoma
CAKI-1 = assay: NCI five-dose assay; assay type: cell-based, human; settings: CAKI-1, Renal cancer
Melanoma subpanel = assay: NCI five-dose assay, subpanel mean; assay type: cell-based, human
Ovarian cancer subpanel = assay: NCI five-dose assay, subpanel mean; assay type: cell-based, human
U251 = assay: NCI five-dose assay; assay type: cell-based, human; settings: Homo sapiens, U-251, U251, CNS cancer
SR = assay: NCI five-dose assay; assay type: cell-based, human; settings: Leukemia
[1] = test system: Non-small cell lung cancer subpanel; assay: NCI five-dose assay, subpanel mean; assay type: cell-based, human
HCT-15 = assay: NCI five-dose assay; assay type: cell-based, human; settings: HCT-15, Colon cancer
LOX IMVI = assay: NCI five-dose assay; assay type: cell-based, human; settings: Melanoma
NCI-H23 = assay: NCI five-dose assay; assay type: cell-based, human; settings: NCI-H23, Non-small cell lung cancer
NCI-H322M = assay: NCI five-dose assay; assay type: cell-based, human; settings: Non-small cell lung cancer
OVCAR-8 = assay: NCI five-dose assay; assay type: cell-based, human; settings: OVCAR-8, Ovarian cancer
BT-549 = assay: NCI five-dose assay; assay type: cell-based, human; settings: BT-549, Breast cancer
Colon cancer subpanel = assay: NCI five-dose assay, subpanel mean; assay type: cell-based, human
HOP-92 = assay: NCI five-dose assay; assay type: cell-based, human; settings: HOP-92, Non-small cell lung cancer
MDA/MB-231-ATCC = assay: NCI five-dose assay; assay type: cell-based, human; settings: Breast cancer
HCC-2998 = assay: NCI five-dose assay; assay type: cell-based, human; settings: HCC-2998, Colon cancer
[2] = Homo sapiens, read-out: GI50 Conc. per Cell Lines
[3] = Homo sapiens, 48 h, read-out: LC50 (the source's name)

`O/N=C(\CSc1nnc(-c2c[nH]c3ccccc23)n1-c1ccccc1)c1ccc(Br)cc1` [Compound 7i, (Z)-2-((5-(1H-Indol-3-yl)-4-phenyl-4H-1,2,4-triazol-3-yl)thio)-1-(4-bromophenyl) Ethanone Oxime] was tested, and the LC50 (MDA-MB-468; Homo sapiens, 48 h) was 6.32 µM, the GI50 (MDA-MB-468; [2]) was 1720 nM and the “TGI Conc. per Cell Lines” value (MDA-MB-468) was 3.30 µM. For the same molecule, the CC50 (SF-295; [3]) was 13.6 µM, the GI50 (SF-295; [2]) was 1930 nM and the “TGI Conc. per Cell Lines” value (SF-295) was 4.70 µM. For the same molecule, the GI50 (Renal cancer subpanel; Homo sapiens, average sensitivity of all cell lines of the Renal cancer subpanel, read-out: GI50 Subpanel MID b) was 2870 nM, the “GI50 Selectivity Ratio (MID a/MID b)” value (Renal cancer subpanel; Renal cancer subpanel) was 0.98 and the LC50 (OVCAR-3; Homo sapiens, 48 h) was over 100 µM. For the same molecule, the GI50 (OVCAR-3; [2]) was 4.98 µM, the “TGI Conc. per Cell Lines” value (OVCAR-3) was 23.8 µM and the “%inhibition” value (tubulin; conc 0.01 (unit not given; IC50 from this curve in µg/ml)) was 6.76%. For the same molecule, the “%inhibition” value (tubulin; conc 0.1 (unit not given; IC50 from this curve in µg/ml)) was 21%, the “%inhibition” value (tubulin; conc 1 (unit not given; IC50 from this curve in µg/ml)) was 47.4% and the “%inhibition” value (tubulin; conc 10 (unit not given; IC50 from this curve in µg/ml)) was 68.5%. The “%inhibition” value (tubulin; conc 100 (unit not given; IC50 from this curve in µg/ml)) was 87%, the IC50 (tubulin; read-out: Tub. IC50±SD (converted)) was 3.03 µM and the IC50 (tubulin; read-out: Tubulin Inhibitory Effect, IC50) was 3.03 ± 0.11 µM. For the same molecule, the LC50 (ACHN; Homo sapiens, 48 h) was 24.9 µM, the GI50 (ACHN; [2]) was 2530 nM and the “TGI Conc. per Cell Lines” value (ACHN) was 7.05 µM. For the same molecule, the CC50 (KM12; [3]) was over 100 µM, the GI50 (KM12; [2]) was 4.15 µM and the “TGI Conc. per Cell Lines” value (KM12) was 29.20 µM. The CC50 (SF-539; [3]) was 38.4 µM, the GI50 (SF-539; [2]) was 4.04 µM and the “TGI Conc. per Cell Lines” value (SF-539) was 14.20 µM. The CC50 (UACC-257; [3]) was 72.6 µM, the GI50 (UACC-257; [2]) was 3.87 µM and the “TGI Conc. per Cell Lines” value (UACC-257) was 17.50 µM. For the same molecule, the “TGI Conc. per Cell Lines” value (CAKI-1) was 8.10 µM, the LC50 (CAKI-1; Homo sapiens, 48 h) was 38 µM and the GI50 (CAKI-1; [2]) was 2630 nM. For the same molecule, the GI50 (Melanoma subpanel; Homo sapiens, average sensitivity of all cell lines of the Melanoma subpanel, read-out: GI50 Subpanel MID b) was 2890 nM, the “GI50 Selectivity Ratio (MID a/MID b)” value (Melanoma subpanel; Melanoma subpanel) was 0.97 and the GI50 (Ovarian cancer subpanel; Homo sapiens, average sensitivity of all cell lines of the Ovarian cancer subpanel, read-out: GI50 Subpanel MID b) was 2790 nM. For the same molecule, the “GI50 Selectivity Ratio (MID a/MID b)” value (Ovarian cancer subpanel; Ovarian cancer subpanel) was 1.00, the CC50 (U251; 48 h, read-out: LC50 (the source's name)) was 51.2 µM and the GI50 (U251; read-out: GI50 Conc. per Cell Lines) was 4.38 µM. For the same molecule, the CC50 (SR; [3]) was over 100 µM, the “TGI Conc. per Cell Lines” value (SR) was over 100 µM and the GI50 ([1]; Homo sapiens, average sensitivity of all cell lines of the Non-small cell lung cancer subpanel, read-out: GI50 Subpanel MID b) was 3.23 µM. The “GI50 Selectivity Ratio (MID a/MID b)” value ([1]; Non-small cell lung cancer subpanel) was 0.87, the “TGI Conc. per Cell Lines” value (HCT-15) was 4.72 µM and the CC50 (HCT-15; [3]) was 12.1 µM. It also gave a GI50 (HCT-15; [2]) of 2110 nM, a CC50 (LOX IMVI; [3]) of 5.69 µM and a GI50 (LOX IMVI; [2]) of 1710 nM. For the same molecule, the “TGI Conc. per Cell Lines” value (LOX IMVI) was 3.12 µM, the CC50 (NCI-H23; [3]) was 84.3 µM and the GI50 (NCI-H23; [2]) was 4.31 µM. For the same molecule, the “TGI Conc. per Cell Lines” value (NCI-H23) was 19.60 µM, the CC50 (NCI-H322M; [3]) was 93.3 µM and the GI50 (NCI-H322M; [2]) was 4.8 µM. For the same molecule, the “TGI Conc. per Cell Lines” value (NCI-H322M) was 24.20 µM, the CC50 (OVCAR-8; [3]) was over 100 µM and the GI50 (OVCAR-8; [2]) was 2450 nM. The “TGI Conc. per Cell Lines” value (OVCAR-8) was 6.50 µM, the “TGI Conc. per Cell Lines” value (BT-549) was 7.25 µM and the CC50 (BT-549; [3]) was 34.2 µM. The GI50 (BT-549; [2]) was 3.16 µM, the “GI50 Selectivity Ratio (MID a/MID b)” value (Colon cancer subpanel; Colon cancer subpanel) was 0.88 and the GI50 (Colon cancer subpanel; Homo sapiens, average sensitivity of all cell lines of the Colon cancer subpanel, read-out: GI50 Subpanel MID b) was 3.19 µM. The “TGI Conc. per Cell Lines” value (HOP-92) was 24.10 µM, the CC50 (HOP-92; [3]) was over 100 µM and the GI50 (HOP-92; [2]) was 3.66 µM. For the same molecule, the “TGI Conc. per Cell Lines” value (MDA/MB-231-ATCC) was 3.26 µM, the LC50 (MDA/MB-231-ATCC; Homo sapiens, 48 h) was 6.21 µM and the GI50 (MDA/MB-231-ATCC; [2]) was 1710 nM. The “TGI Conc. per Cell Lines” value (HCC-2998) was 12.30 µM, the CC50 (HCC-2998; [3]) was 35.8 µM and the GI50 (HCC-2998; [2]) was 3.36 µM.
